Measurements taken from PMC9107766, “Inhibitory effect of lignin on the hydrolysis of xylan by thermophilic and thermolabile GH11 xylanases” (Biotechnology for Biofuels and Bioproducts, 2022).

How the values were obtained:
TrXyn1 = target: T1, TrXyn1 (Trichoderma reesei, UniProt P36218); test: birch wood xylan hydrolysis yield, reducing sugars by PAHBAH; type: biochemical; conditions: tested at 10, 100 and 1000 µg/ml; 1% xylan, 50 mM Na-citrate pH 5, 40 or 50 °C; concentration of the printed value not given
T1 construct: gene xyn1; natural single-domain GH11 enzyme, homologously produced and purified from T. reesei culture supernatant
T1 sequence (P36218 52-229): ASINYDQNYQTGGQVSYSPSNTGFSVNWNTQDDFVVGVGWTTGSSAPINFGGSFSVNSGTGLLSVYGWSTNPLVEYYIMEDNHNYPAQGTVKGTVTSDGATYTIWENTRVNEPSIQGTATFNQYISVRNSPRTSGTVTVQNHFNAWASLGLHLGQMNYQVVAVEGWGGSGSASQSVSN

TrXyn2 = target: T2, TrXyn2 (Trichoderma reesei, UniProt P36217); test: as above; type: biochemical; conditions: tested at 10, 100 and 1000 µg/ml; 1% xylan, 50 mM Na-citrate pH 5, 40 or 50 °C
T2 construct: gene xyn2; natural single-domain GH11 enzyme, homologously produced and purified from T. reesei culture supernatant
T2 sequence (P36217 34-223): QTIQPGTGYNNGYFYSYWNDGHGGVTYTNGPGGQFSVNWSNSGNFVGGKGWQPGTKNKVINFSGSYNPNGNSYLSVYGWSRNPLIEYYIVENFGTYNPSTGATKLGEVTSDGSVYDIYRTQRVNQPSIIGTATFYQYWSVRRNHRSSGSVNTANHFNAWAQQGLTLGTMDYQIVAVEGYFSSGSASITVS

## COc1cc(C=O)cc(OC)c1O [syringaldehyde]
TrXyn1
  % reduction in the hydrolysis yield: 50%
TrXyn2
  reduction in hydrolysis yield: only syringaldehyde showed a clear inhibitory effect on the hydrolysis for all the tested xylanases
